For test [1], the target named is T1, PSMA-expressing C4-2 cells (Homo sapiens, UniProt Q04609).
T1 construct: PSMA-expressing C4-2 cells (ATCC, Cat. No. CRL-3314) were cultured in RPMI-1640; host or cells: C4-2 cells
Put plainly: FACS binding assay (competition with 50 nM PSM-0183). To be noted: pIC50 category of FACS binding, C4-2 cells; read-out: pIC50 [C4-2] CAT (converted). An outline of the steps: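 C4-2 cells were incubated 1 h at 4 °C with 50 nM AF488-labelled peptide PSM-0183 plus increasing test compound concentrations, then washed twice in ice-cold buffer. Median fluorescence in the AF488 channel was read by flow cytometry. IC50/pIC50 was derived by 4PL fitting of MFI versus concentration.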

Test [2] has as its target T2, Fc-fusion protein of human PSMA (hPSMA-Fc) (Homo sapiens, UniProt Q04609).
T2 construct: purchased Acro Biosystems PSA-H5264
Put plainly: Surface plasmon resonance assay (Biacore T200, single cycle kinetic). The class given is binding. Conditions: pKD category for PSMA SPR activity assay, hPSMA-Fc, 25° C.; read-out: pKD CAT (converted). An outline of the steps: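 hPSMA-Fc was captured (~1000 RU) on an Fc-binding-peptide CM5 chip, and compounds were run in single cycle kinetic mode at 25° C in HBST with 0.1% DMSO. Double-blank-corrected sensorgrams were fitted to a 1:1 Langmuir model to give KD, reported as pKD.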
On the technique in general: Surface plasmon resonance follows binding to a sensor surface in real time, without labels.

Numbered stars: 1 amine (or outer) side, 2 acyl side, 3 side chain; on linkers, the order of the positions; unused ones are H or OH. Bridge positions count the residues as written; N and C are the ends. Square brackets hold non-standard residues; d marks the D form. Peptide text beside a SMILES is read from it. * marks the point of attachment. X3 = O=C(O)CN1CCN(CC(=O)O)CCN(CC(=O)NCCCOCCOCCOCCCN*)CCN(CC(=O)O)CC1; DOTA = O=C(O)CN1CCN(CC(=O)O)CCN(CC(=O)*)CCN(CC(=O)O)CC1; Lys(Me3) = C[N+](C)(C)CCCC[C@H](N)C(=O)O; Phe(3-Cl) = N[C@@H](Cc1cccc(Cl)c1)C(=O)O; Phe(4-Cl) = N[C@@H](Cc1ccc(Cl)cc1)C(=O)O; Arg(Me) = CNC(=N)NCCC[C@H](N)C(=O)O; Ethylenediamine = C(CN[*:2])N[*:1]; X1 = O=C(CC1CCN([*:1])CC1)[*:2]; Aad = N[C@@H](CCCC(=O)O)C(=O)O; Lys(Me) = CNCCCC[C@H](N)C(=O)O; Suc = O=C(CCC(=O)[*:2])[*:1]; Tle = CC(C)(C)[C@H](N)C(=O)O; Nle = CCCC[C@H](N)C(=O)O; Aib = CC(C)(N)C(=O)O; CO = O=C([*:1])[*:2]; NHBu = CCCCN*

T1 sequence (Q04609 whole entry): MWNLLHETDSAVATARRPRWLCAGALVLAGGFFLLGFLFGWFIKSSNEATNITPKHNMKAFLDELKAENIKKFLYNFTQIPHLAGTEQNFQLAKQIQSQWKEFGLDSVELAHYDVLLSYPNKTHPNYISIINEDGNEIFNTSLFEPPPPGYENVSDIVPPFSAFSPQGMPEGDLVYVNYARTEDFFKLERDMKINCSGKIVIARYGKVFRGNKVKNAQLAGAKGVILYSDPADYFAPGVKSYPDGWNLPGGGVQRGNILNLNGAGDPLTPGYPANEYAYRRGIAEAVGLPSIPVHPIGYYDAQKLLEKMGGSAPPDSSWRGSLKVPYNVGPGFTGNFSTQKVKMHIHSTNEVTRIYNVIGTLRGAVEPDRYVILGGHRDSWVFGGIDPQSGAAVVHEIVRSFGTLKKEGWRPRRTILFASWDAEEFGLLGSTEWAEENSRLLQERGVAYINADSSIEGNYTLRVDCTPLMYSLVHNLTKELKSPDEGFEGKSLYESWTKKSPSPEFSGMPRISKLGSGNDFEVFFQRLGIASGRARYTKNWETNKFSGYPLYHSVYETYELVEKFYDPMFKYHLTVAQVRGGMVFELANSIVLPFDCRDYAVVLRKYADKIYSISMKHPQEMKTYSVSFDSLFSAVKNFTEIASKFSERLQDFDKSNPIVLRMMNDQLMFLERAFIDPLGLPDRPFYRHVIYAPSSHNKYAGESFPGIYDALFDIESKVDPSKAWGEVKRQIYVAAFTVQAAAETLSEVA
T2 sequence (Q04609 44-750 limits assumed): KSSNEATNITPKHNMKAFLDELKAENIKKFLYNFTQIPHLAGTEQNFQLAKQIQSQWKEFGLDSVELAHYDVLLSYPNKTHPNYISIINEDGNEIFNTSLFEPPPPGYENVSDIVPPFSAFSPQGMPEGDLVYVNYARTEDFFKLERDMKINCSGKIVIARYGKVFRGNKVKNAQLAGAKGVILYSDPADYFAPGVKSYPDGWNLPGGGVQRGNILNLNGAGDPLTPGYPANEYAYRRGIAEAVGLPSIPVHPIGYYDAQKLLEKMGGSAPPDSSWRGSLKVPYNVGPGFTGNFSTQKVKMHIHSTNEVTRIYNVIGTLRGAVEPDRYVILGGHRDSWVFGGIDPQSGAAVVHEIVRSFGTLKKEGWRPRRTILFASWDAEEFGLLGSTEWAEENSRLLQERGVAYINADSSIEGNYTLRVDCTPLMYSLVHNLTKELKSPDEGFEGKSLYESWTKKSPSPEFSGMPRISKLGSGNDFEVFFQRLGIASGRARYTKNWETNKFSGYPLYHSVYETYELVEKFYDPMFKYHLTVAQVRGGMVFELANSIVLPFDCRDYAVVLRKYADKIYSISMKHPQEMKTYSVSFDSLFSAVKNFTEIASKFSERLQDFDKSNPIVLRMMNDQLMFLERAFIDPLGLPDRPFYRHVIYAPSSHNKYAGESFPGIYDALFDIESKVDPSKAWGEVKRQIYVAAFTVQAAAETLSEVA

In the case of `CNCCCC[C@@H]1NC(=O)[C@@H](NC(=O)[C@H](Cc2ccc(Cl)cc2)NC(=O)C(C)(C)NC(C)=O)CSSC[C@@H](C(=O)N[C@H](C(=O)NCCNC(=O)CN2CCN(CC(=O)O)CCN(CC(=O)O)CCN(CC(=O)O)CC2)C(C)(C)C)NC(=O)[C@H](CC(N)=O)NC(=O)C(C)(C)NC(=O)[C@H](CCCNC(=N)N)NC1=O` [PSM-0472, Ac-Aib-Pcf-[Cys-Lys(Me)-Arg-Aib-Asn-Cys]-Tle-en-DOTA] (Ac-[Aib][Phe(4-Cl)]C[Lys(Me)]R[Aib]NC[Tle]-{Ethylenediamine-DOTA}; disulfide 3-8), the IC50 in test [1] was less than 200 nM. Also, the Kd in test [2] is less than 12.6 nM.
`CCCC[C@H](NC(=O)[C@@H]1CSSC[C@H](NC(=O)[C@H](Cc2ccccc2)NC(=O)[C@H](C)NC(=O)[C@@H](NC(C)=O)[C@@H](C)O)C(=O)N[C@@H](CCCCN)C(=O)N[C@@H](CCCNC(=N)N)C(=O)N[C@H](C)C(=O)N[C@@H](CC(N)=O)C(=O)N1)C(=O)N[C@H](C(=O)N[C@@H](CC(=O)O)C(N)=O)[C@@H](C)O` [PSM-0474, Ac-Thr-Ala-Phe-[Cys-Lys-Arg-ala-Asn-Cys]-Nle-Thr-Asp-NH2]: the IC50 in test [1] was 1260 to 3160 nM. In addition, the Kd in test [2] is greater than 501 nM.
Turning to `CCCC[C@H](NC(=O)[C@@H]1CSSC[C@H](NC(=O)[C@H](Cc2ccccc2)NC(=O)[C@H](C)NC(=O)[C@@H](NC(C)=O)[C@@H](C)O)C(=O)N[C@@H](C)C(=O)N[C@@H](CCCNC(=N)N)C(=O)N[C@@H](C)C(=O)N[C@@H](CC(N)=O)C(=O)N1)C(=O)N[C@H](C(=O)N[C@@H](CC(=O)O)C(N)=O)[C@@H](C)O` [PSM-0475, Ac-Thr-Ala-Phe-[Cys-Ala-Arg-Ala-Ass-Cys]-Nle-Thr-Asp-NH2] (Ac-TAFCARANC[Nle]TD-NH2; disulfide 4-9), the IC50 in test [1] was 1260 to 3160 nM. In addition, in test [2], the Kd was greater than 501 nM.
With `CCCC[C@H](NC(=O)[C@@H]1CSSC[C@H](NC(=O)[C@H](Cc2ccccc2)NC(=O)[C@H](C)NC(=O)[C@@H](NC(C)=O)[C@@H](C)O)C(=O)N[C@@H](CCCCN)C(=O)N[C@@H](CCCNC(=N)N)C(=O)N[C@@H](C)C(=O)N[C@@H](CC(N)=O)C(=O)N1)C(=O)N[C@@H](C)C(=O)N[C@@H](CC(=O)O)C(N)=O` [PSM-0476, Ac-Thr-Als-Phe-[Cys-Lys-Arg-Ala-Asn-Cys]-Nle-Als-Asp-NH2] (Ac-TAFCKRANC[Nle]AD-NH2; disulfide 4-9), in test [1], the IC50 was 200 to 1260 nM. Further, the Kd in test [2] was 126 to 501 nM.
Taken in the same sequence, the figures for `CC(=O)N[C@H](C(=O)NC(C)(C)C(=O)N[C@@H](Cc1ccccc1)C(=O)N[C@H]1CSSC[C@@H](C(=O)N[C@H](C(=O)NCC(N)=O)C(C)(C)C)NC(=O)[C@H](CC(N)=O)NC(=O)C(C)(C)NC(=O)[C@H](CCCNC(=N)N)NC(=O)[C@H](CCCCN)NC1=O)[C@@H](C)O` [PSM-0477, Ac-Thr-Aib-Phe-[Cys-Lys-Arg-Aib-Asn-Cys]-Tle-Gly-NH2] (Ac-T[Aib]FCKR[Aib]NC[Tle]G-NH2; disulfide 4-9) were less than 200 nM and less than 12.6 nM.
In the same order, the values of `CC(=O)N[C@H](C(=O)NC(C)(C)C(=O)N[C@@H](Cc1ccccc1)C(=O)N[C@H]1CSSC[C@@H](C(=O)N[C@H](C(=O)N[C@H](C(N)=O)[C@@H](C)O)C(C)(C)C)NC(=O)[C@H](CC(=O)O)NC(=O)C(C)(C)NC(=O)[C@H](CCCNC(=N)N)NC(=O)[C@H](CCCCN)NC1=O)[C@@H](C)O` [PSM-0478, Ac-Thr-Aib-Phe-[Cys-Lys-Arg-Aib-Asp-Cys]-Tle-Thr-NH2] (Ac-T[Aib]FCKR[Aib]DC[Tle]T-NH2; disulfide 4-9) are less than 200 nM and less than 12.6 nM.
In the same order, the values of `CC(=O)N[C@H](C(=O)NC(C)(C)C(=O)N[C@@H](Cc1ccccc1)C(=O)N[C@H]1CSSC[C@@H](C(=O)N[C@H](C(=O)N[C@H](C(N)=O)[C@@H](C)O)C(C)(C)C)NC(=O)CNC(=O)C(C)(C)NC(=O)[C@H](CCCNC(=N)N)NC(=O)[C@H](CCCCN)NC1=O)[C@@H](C)O` [PSM-0479, Ac-Thr-Aib-Phe-[Cys-Lys-Arg-Aib-Gly-Cys]-Tle-Thr-NH2] (Ac-T[Aib]FCKR[Aib]GC[Tle]T-NH2; disulfide 4-9) are less than 200 nM and less than 12.6 nM.
For `CC(C)C[C@H](NC(=O)[C@@H]1CSSC[C@H](NC(=O)[C@H](Cc2ccccc2)NC(=O)[C@H](C)NC(=O)[C@@H](NC(=O)CCC(=O)NCCCOCCOCCOCCCNC(=O)CN2CCN(CC(=O)O)CCN(CC(=O)O)CCN(CC(=O)O)CC2)[C@@H](C)O)C(=O)N[C@@H](CCCCN)C(=O)N[C@@H](CCCNC(=N)N)C(=O)N[C@@H](C)C(=O)N[C@@H](CC(N)=O)C(=O)N1)C(N)=O` [PSM-0480, DOTA-Ttds-Thr-Ala-Phe-[Cys-Lys-Arg-Ala-Asn-Cys]-Lou-NH2] ({X3-Suc}-TAFCKRANCL-NH2; disulfide 4-9), the IC50 in test [1] was 1260 to 3160 nM. Also, the Kd in test [2] is 126 to 501 nM.
In the case of `CC(=O)N[C@H](C(=O)NC(C)(C)C(=O)N[C@@H](Cc1ccc(Cl)cc1)C(=O)N[C@H]1CSSC[C@@H](C(=O)N[C@H](C(=O)N[C@H](C(=O)N2CCC(CC(=O)N[C@H](CCCCNC(=O)CN3CCN(CC(=O)O)CCN(CC(=O)O)CCN(CC(=O)O)CC3)C(N)=O)CC2)[C@@H](C)O)C(C)(C)C)NC(=O)[C@H](CC(N)=O)NC(=O)C(C)(C)NC(=O)[C@H](CCCNC(=N)N)NC(=O)[C@H](CCCCN)NC1=O)[C@@H](C)O` [PSM-0482, Ac-Thr-Aib-Pcf-[Cys-Lys-Arg-Aib-Asn-Cys]-Tle-Thr-Cmp-lys(DOTA)-NH2] (Ac-T[Aib][Phe(4-Cl)]CKR[Aib]NC[Tle]T[X1][dK](DOTA)-NH2; disulfide 4-9), the IC50 in test [1] was less than 200 nM. Further, in test [2], the Kd was less than 12.6 nM.
Regarding `CNC(=N)NCCC[C@@H]1NC(=O)[C@H](CCCC[N+](C)(C)C)NC(=O)[C@@H](NC(=O)[C@H](Cc2ccc(Cl)cc2)NC(=O)C(C)(C)NC(=O)[C@@H](NC(=O)CC2CCN(C(=O)CN3CCN(CC(=O)O)CCN(CC(=O)O)CCN(CC(=O)O)CC3)CC2)[C@@H](C)O)CSSC[C@@H](C(=O)N[C@H](C(=O)N[C@H](C(N)=O)[C@@H](C)O)C(C)(C)C)NC(=O)[C@H](CC(N)=O)NC(=O)C(C)(C)NC1=O` [PSM-0483, DOTA-Cmp-Thr-Aib-Pcf-[Cys-KMe3-Arg(Me)-Aib-Asn-Cys]-Tle-Thr-NH2] ({DOTA}-[X1]T[Aib][Phe(4-Cl)]C[Lys(Me3)][Arg(Me)][Aib]NC[Tle]T-NH2; disulfide 5-10), the IC50 in test [1] is less than 200 nM. Moreover, the Kd in test [2] is 12.6 to 126 nM.
Turning to `CCCCNC(=O)N[C@H](C(=O)NC(C)(C)C(=O)N[C@@H](Cc1ccccc1)C(=O)N[C@H]1CSSC[C@@H](C(=O)N[C@H](C(=O)N[C@H](C(=O)N2CCC(CC(=O)N[C@H](CCCCNC(=O)CN3CCN(CC(=O)O)CCN(CC(=O)O)CCN(CC(=O)O)CC3)C(N)=O)CC2)[C@@H](C)O)C(C)(C)C)NC(=O)[C@H](CC(N)=O)NC(=O)C(C)(C)NC(=O)[C@H](CCCNC(=N)N)NC(=O)[C@H](CCCCN)NC1=O)[C@@H](C)O` [PSM-0484, nBuCAyl-Thr-Aib-Phe-[Cys-Lys-Arg-Aib-Asn-Cys]-Tle-Thr-Cmp-lys(DOTA)-NH2] ({NHBu-CO}-T[Aib]FCKR[Aib]NC[Tle]T[X1][dK](DOTA)-NH2; disulfide 4-9), the IC50 in test [1] was less than 200 nM. Besides, in test [2], the Kd is less than 12.6 nM.
Turning to `C[C@@H](O)[C@H](NC(=O)[C@@H](NC(=O)[C@@H]1CSSC[C@H](NC(=O)[C@H](Cc2ccc(Cl)cc2)NC(=O)C(C)(C)NC(=O)[C@@H](NC(=O)CC2CCN(C(=O)CN3CCN(CC(=O)O)CCN(CC(=O)O)CCN(CC(=O)O)CC3)CC2)[C@@H](C)O)C(=O)N[C@@H](CCCC(N)=O)C(=O)N[C@@H](CCCNC(=N)N)C(=O)NC(C)(C)C(=O)N[C@@H](CC(N)=O)C(=O)N1)C(C)(C)C)C(N)=O` [PSM-0485, DOTA-Cmp-Thr-Aib-Pcf-[Cys-Hgn-Arg-Aib-Asn-Cys]-Tle-Thr-NH2] ({DOTA}-[X1]T[Aib][Phe(4-Cl)]C[Aad](NH2)R[Aib]NC[Tle]T-NH2; disulfide 5-10), in test [1], the IC50 was less than 200 nM. The Kd in test [2] was less than 12.6 nM.
In the same order, the values of `CC(=O)N[C@H](C(=O)NC(C)(C)C(=O)N[C@@H](Cc1cccc(Cl)c1)C(=O)N[C@H]1CSSC[C@@H](C(=O)N[C@H](C(=O)N[C@H](C(=O)N2CCC(CC(=O)N[C@H](CCCCNC(=O)CN3CCN(CC(=O)O)CCN(CC(=O)O)CCN(CC(=O)O)CC3)C(N)=O)CC2)[C@@H](C)O)C(C)(C)C)NC(=O)[C@H](CC(N)=O)NC(=O)C(C)(C)NC(=O)[C@H](CCCNC(=N)N)NC(=O)[C@H](CCCCN)NC1=O)[C@@H](C)O` [PSM-0486, Ac-Thr-Aib-Mcf-[Cys-Lys-Arg-Aib-Asn-Cys]-Tle-Thr-Cmp-lys(DOTA)-NH2] (Ac-T[Aib][Phe(3-Cl)]CKR[Aib]NC[Tle]T[X1][dK](DOTA)-NH2; disulfide 4-9) are less than 200 nM and less than 12.6 nM.
In the same order, the values of `CC(=O)N[C@H](C(=O)NC(C)(C)C(=O)N[C@@H](Cc1ccc(O)cc1)C(=O)N[C@H]1CSSC[C@@H](C(=O)N[C@H](C(=O)N[C@H](C(=O)N[C@@H](CC(=O)O)C(N)=O)[C@@H](C)O)C(C)(C)C)NC(=O)[C@H](CC(N)=O)NC(=O)C(C)(C)NC(=O)[C@H](CCCNC(=N)N)NC(=O)[C@H](CCCCN)NC1=O)[C@@H](C)O` [PSM-0488, Ac-Thr-Aib-Tyr-[Cys-Lys-Arg-Aib-Asn-Cys]-Tle-Thr-Asp-NH2] (Ac-T[Aib]YCKR[Aib]NC[Tle]TD-NH2; disulfide 4-9) are less than 200 nM and 12.6 to 126 nM.

The values are drawn from patent publication US20260083865A1, “PROSTATE SPECIFIC MEMBRANE ANTIGEN (PSMA) LIGANDS AND USE THEREOF” (priority 2022, published 2026).
